Read-outs that look alike come from different tables or passages of the source. Where a SMILES comes first, the peptide text is derived from it. The star is where a group is joined. Cbz = O=C(OCc1ccccc1)*
Columns and labels:
[1] = test system: HCT-15 cells; assay: GFP-L7a expression in treated HCT-15 cells (FIG. 8); type: cell-based, human
Excerpt: FIG. 8 contains pictures of cells. HCT-15 cells, grown on 35 mm glass bottom dishes, were transfected with the GFP-L7a vector pCMV6-AC-GFP to express GFP-L7a protein.

[2] = test system: HCT-15 cells
Method: (§1) To further assess protein biosynthesis in the perinuclear area and ribosome biogenesis, several chemical agents were tested on cellular growth and survival.
(§2) All the tested compounds were dissolved in dimethylsulfoxide (DMSO).
(§3) The human colorectal adenocarcinoma cell lines: HCT-15 was purchased from ATCC. Cultures of cells maintained in DMEM/F12 medium containing 10% FBS and antibiotics, at 37° C. with 5% CO2. For cell treatments, cells were grown at 80% confluence in complete medium.

[3] = test system: HCT-15 cells; assay: Cell survival assay using MTT (toxicity study, FIG. 7); conditions: for toxicity (cell survival, MTT): at the applied concentrations, compounds dissolved in DMSO; for cellular proliferation: prolonged 24-hour treatments
Method: as §1, §2, §3

[4] = HCT-15 cells transfected with GFP-L7a vector pCMV6-AC-GFP

Question: `O=C1Nc2cc(Br)ccc2/C1=C1/Nc2ccccc2/C1=N\O` [Bio, (2′Z,3′E)-6-Bromoindirubin-3′-oxime] was tested. Which “nucleolar hypertrophy (GFP-L7a)” value [1, 4] did it give?
Answer: Its value is “induced”.

Question: What about the “perinuclear protein synthesis (GFP-L7a)” value [1, 4] of the same compound?
Answer: Its value is “induced”.

Question: And the “toxicity (cell survival, MTT)” value [2]?
Answer: The value was “more toxic than the other compounds”.

Question: Which “nucleolar hypertrophy (GFP-L7a)” value [1, 4] does the source give for `COC1=C2C[C@@H](C)C[C@H](OC)[C@H](O)[C@@H](C)/C=C(\C)[C@H](OC(N)=O)[C@@H](OC)/C=C\C=C(/C)C(=O)NC(=CC1=O)C2=O` [Geldanamycin, (4E,6Z,8S,9S,10E,12S,13R,14S,16R)-13-hydroxy-8,14,19-trimethoxy-4,10,12,16-tetramethyl-3,20,22-trioxo-2-azabicyclo[16.3.1]docosa-1(21),4,6,10,18-pentaen-9-yl carbamate] here?
Answer: The value was “induced”.

Question: And the “perinuclear protein synthesis (GFP-L7a)” value [1, 4]?
Answer: The value was “induced”.

Question: What about the “toxicity (cell survival, MTT)” value [3] of the same compound?
Answer: Its value is “no toxicity”.

Question: And the cellular proliferation [3]?
Answer: Its cellular proliferation is “inhibited cellular proliferation”.

Question: How did the “nucleolar hypertrophy (GFP-L7a)” value [1, 4] turn out when `CC(C)C[C@@H](C=O)NC(=O)[C@H](CC(C)C)NC(=O)[C@H](CC(C)C)NC(=O)OCc1ccccc1` [MG132, Benzyl N-[(2S)-4-methyl-1-[[(2S)-4-methyl-1-[[(2S)-4-methyl-1-oxopentan-2-yl]amino]-1-oxopentan-2-yl]amino]-1-oxopentan-2-yl]carbamate] (Cbz-Leu-Leu-Leu-aldehyde) was run?
Answer: Its value is “induced”.

Question: What about the “perinuclear protein synthesis (GFP-L7a)” value [1, 4] of the same compound?
Answer: Its value is “induced”.

Question: What about the “toxicity (cell survival, MTT)” value [3] of the same compound?
Answer: Its value is “no toxicity”.

Question: And the cellular proliferation [3]?
Answer: The cellular proliferation was “inhibited cellular proliferation”.

Question: How did the “nucleolar hypertrophy (GFP-L7a)” value [1, 4] turn out when `CCc1cncnc1N1CCN(Cc2nc3cc(C(F)(F)F)ccc3[nH]2)CC1` [PF4708671, 2-((4-(5-Ethylpyrimidin-4-yl)piperazin-1-yl)methyl)-5-(trifluoromethyl)-1H-benzo[d]imidazole] was run?
Answer: The value was “induced”.

Question: And the “perinuclear protein synthesis (GFP-L7a)” value [1, 4]?
Answer: Its value is “induced”.

Question: What about the “toxicity (cell survival, MTT)” value [3] of the same compound?
Answer: Its value is “no toxicity”.

Question: Which “nucleolar hypertrophy (GFP-L7a)” value [1, 4] does the source give for `C=C(C)[C@H]1Cc2c(ccc3c2O[C@@H]2COc4cc(OC)c(OC)cc4[C@@H]2C3=O)O1` [Rotenone, (2R,6aS,12a5)-1,2,6,6a,12,12a-hexahydro-2-isopropenyl-8,9-dimethoxychromeno[3,4-b]furo(2,3-h)chromen-6-one] here?
Answer: Its value is “induced”.

Question: What about the “perinuclear protein synthesis (GFP-L7a)” value [1, 4] of the same compound?
Answer: The value was “induced”.

Question: And the “toxicity (cell survival, MTT)” value [2]?
Answer: Its value is “no toxicity”.

Question: What about the cellular proliferation [3] of the same compound?
Answer: Its cellular proliferation is “inhibited cellular proliferation”.

Question: How did the “perinuclear protein synthesis (GFP-L7a)” value [1] turn out when `CC(C)n1nc(-c2cc3cc(O)ccc3[nH]2)c2c(N)ncnc21` [pp242, 2-(4-amino-1-isopropyl-1H-pyrazolo[3,4-d]pyrimidin-3-yl)-1H-indol-5-ol] was run?
Answer: The value was “induced”.

Question: What about the “toxicity (cell survival, MTT)” value [2] of the same compound?
Answer: The value was “no toxicity”.

From US11428693B2, “Method of high throughput screening of chemical compounds suppressing nucleolar hypertrophy” (Baylor College of Medicine, priority 2017, dated 2022)
